Where a name gives a salt, the structure may show the parent alone.
Columns and labels:
[1] = system: human prostate cancer PC3 xenografts; test: Tumor mass, human prostate cancer PC3 xenografts in nude mice, with Gemcitabine; assay type: in vivo, mouse; settings: 160 mg/kg
Description: (§1) PC3 cells were cultured in 90% Ham's, F12K Medium with 10% Fetal Bovine Serum (FBS), in presence of 100 U/ml Penicillin and 100 μg/ml Streptomycin to establish the Human Prostate cancer model (PC3). Male athymic nude mice, 4-6 weeks old (Frederick Cancer Research and Development Center, Frederick, Md.), were accommodated for 6 days for environmental adjustment prior to the study. Cultured PC3 cells were harvested from the monolayer cultures, washed twice with Ham's, F12K Medium (10% FBS), resuspended in FBS-free Ham's, F12K Medium: Matrigel basement membrane matrix (Becton Dickinson Labware, Bedford, Mass.) (5:1; V/V), and injected subcutaneously (5×10^6 cells, total volume 0.2 ml) into the left inguinal area of each of the mice. The animals were monitored by general clinical observation, body weight, and tumor growth. Tumor growth was monitored by the measurement, with calipers, of two perpendicular diameters of the implant. Tumor mass (weight in grams) was calculated by the formula, 1/2a X b^2, where ‘a’ is the long diameter (cm) and ‘b’ is the short diameter (cm). When the mean tumor sizes reached ˜80 mg, the animals bearing human cancer xenografts were randomly divided into the treatment and control groups (5 animals/group). The control group received sterile physiological saline (0.9% NaCl) only. Immunomer 255 or 285, aseptically dissolved in physiological saline, was administered by subcutaneously injection at dose of 0.5 or 1.0 mg/kg/day, 3 doses/week. […] The detailed treatment schedule is shown as follows.

[2] = Body weight and clinical observation of PC3 tumor-bearing nude mice; assay type: in vivo, mouse; settings: compared with controls
4T1 breast tumor = 4T1 breast tumor in BALB/c mice, combination with doxorubicin; assay type: in vivo, mouse; settings: IMO 2 1 mg/kg peritumoral, doxorubicin 30 mg/kg i.p; FIG. 24A
Description: For the 4T1 tumor models, 5×10^5 cells/mouse in. 100 μl PBS were implanted into BALB/c mice in the lower right flank. On day 5 when the average tumor size reached 50 mm^2, the mice were given i.p injections of 30 mg/kg doxorubicin (Bedford lab, Bedford, Ohio) for three times on days 5, 6 and 7. IMO 2 (1 mg/kg) dissolved in 100 μl PBS was administrated by peritumoral injection at twice a week interval for a total of six times.

BALB/c mice = test: In vivo serum cytokine induction; set-up: species or system mouse; settings: for IL-6 (serum) / IL-12 (serum): 10 mg/kg, 4 hrs
Description: To assess serum cytokine levels, BALB/c mice (n=5) were injected intraperitoneally (i.p), subcutaneously (s.c) or intramuscularly (i.m) with IMO compounds at 10 mg/kg (single dose). Sera was collected by retro-orbital bleeding at 4 hrs of IMO administration and determined IL-112 and IL-6 by sandwich ELISA. Cytokine antibodies and standards were purchased from PharMingen (San Diego, Calif.).
To evaluate the immunopharmacological effects in vivo, IMO compounds, CpG immunomers, and non-CpG oligos were administered to BALB/c mice i.p, s.c or i.m at a dose of 10 mg/kg and their serum was evaluated for IL-12 and IL-6 after 4 hrs.

CT26.CL25 colon tumor = test: Subcutaneous CT26.CL25 colon tumor in BALB/c mice; assay type: in vivo, mouse
Description: For subcutaneous solid tumor models, 10^6 CT26.CL25 cells/mouse or 5×10^5 B16.F0 cells/mouse in 100 μl of PBS were implanted into BALB/c or C57BL/6 mice in the lower right flank. The tumor size reached to 50 to 200 mg on day 6 for CT26.CL25 and on day 8 for B16.F0 post tumor inoculation. The tumor bearing mice were then treated with peritumoral injection of IMO compounds or non-CpG DNA control at a dose of 1 mg/kg every other day for 10 times. Tumor growth was recorded with the use of calipers, by measuring the long and short diameters of the tumor. Tumor volumes were measured with a caliper and the formula (0.5×length×width^2) was applied to determine tumor growth kinetics.
The antitumor activity of IMO compounds in a murine colon carcinoma CT26.CL25 model was evaluated. BALB/c mice bearing CT26.CL25 subcutaneous solid tumors were treated with 1 mg/kg IMO compounds by peritumoral administration every other day for 10 times starting on day 6 following tumor inoculation.

[3] = system: Her-2 positive BT-474 cells; test: Lysis of BT-474 cells by IMO-activated human PBMCs in the presence of Herceptin; assay type: cell-based; settings: FIG. 26
[4] = system: human prostate cancer PC3 xenografts; test: PC3 xenograft experiment repeated with taxotere; assay type: in vivo, mouse; set-up: unit: mg; settings: 15 mg/kg
Description: as §1
Taxotere was administered on days 0 and 7. Immunomer 165 was administered 5 days per week. Immunomers 255 and 285 were administered on days 0, 2, 4, 7, 9 and 11.

CD69+ and CD86+ cells = test: Activation of CD69+ and CD86+ cells in peripheral blood; assay type: in vivo, mouse; settings: docetaxel 30 mg/kg days 1 and 3, IMO 2 5 mg/kg days 1, 3, 5, 7; FIG. 24C
[5] = In vitro cytokine induction profiles of IMO compounds (FIG. 16); assay type: cell-based

Nc1ccn([C@@H]2O[C@H](CO)[C@@H](O)C2(F)F)c(=O)n1 [Gemcitabine, Gemcitabine HCl]
Tumor mass ([1]; Day 0): 82.6 mg | Tumor mass ([1]; Day 3): 73.0 mg | Tumor mass ([1]; Day 9): 35.7 mg | Tumor mass ([1]; Day 12): 36.2 mg | Tumor mass ([1]; Day 15): 31.7 mg | Tumor mass ([1]; Day 18): 40.8 mg | Tumor mass ([1]; Day 24): 56.5 mg | Tumor mass ([1]; Day 27): 68.0 mg | Tumor mass ([1]; Day 30): 89.4 mg | Tumor mass ([1]; Day 33): 106.5 mg | Tumor mass ([1]; Day 36): 144.2 mg | Tumor mass ([1]; Day 39): 175.3 mg | Tumor mass ([1]; Day 42): 269.1 mg | Tumor mass ([1]; Day 45): 383.8 mg | Tumor mass ([1]; Day 48): 538.6 mg | Body weight gains [2]: body weight loss in the first week and recovered in a week afterwards

COc1cccc2c1C(=O)c1c(O)c3c(c(O)c1C2=O)C[C@@](O)(C(=O)CO)C[C@@H]3O[C@H]1C[C@H](N)[C@H](O)[C@H](C)O1 [doxorubicin, reference compound]
Inhibition of 4T1 tumor growth (4T1 breast tumor): strong inhibition

IMO 3: IMO compound of FIG. 15 (SEQ ID NO 18) containing a human-specific motif (DNA TCTGTCNTTCT; listed as DNA, further chemistry not given here)
Serum IL-12 secretion in mice (BALB/c mice; 4 hr after administration, FIG. 25B): induced IL-12 secretion | Antitumor activity (CT26.CL25 colon tumor; FIG. 25A): potent antitumor activity | Lysis of BT-474 cells [3]: induces lysis of Her-2 positive BT-474 cells in the presence of Herceptin

CC(=O)O[C@@]12CO[C@@H]1C[C@H](O)[C@@]1(C)C(=O)[C@H](O)C3=C(C)[C@@H](OC(=O)[C@H](O)[C@@H](NC(=O)OC(C)(C)C)c4ccccc4)C[C@@](O)([C@@H](OC(=O)c4ccccc4)[C@H]21)C3(C)C [Taxotere, Docetaxel]
In vivo anti-cancer activity (tumor mass) ([4]; Day 0.00): 56.64 | In vivo anti-cancer activity (tumor mass) ([4]; Day 3.00): 128.51 | In vivo anti-cancer activity (tumor mass) ([4]; Day 6.00): 320.63 | In vivo anti-cancer activity (tumor mass) ([4]; Day 9.00): 598.69 | In vivo anti-cancer activity (tumor mass) ([4]; Day 12.00): 924.91 | In vivo anti-cancer activity (tumor mass) ([4]; Day 15.00): 1589.08 | Percentage of CD69+ and CD86+ cells (CD69+ and CD86+ cells): did not inhibit such activations

IMO 1: IMO compound of FIG. 15, first in order (SEQ ID NO 13) (DNA TCTGACGTTCT; listed as DNA, chemistry not given here)
IL-6 (serum) (BALB/c mice; Intramuscular (i.m)): 5.8 ± 0.5 ng/mL | IL-12 (serum) (BALB/c mice; Intramuscular (i.m)): 109.3 ± 25 ng/mL | IL-6 (serum) (BALB/c mice; Intraperitoneal (i.p)): 5.9 ± 0.2 ng/mL | IL-12 (serum) (BALB/c mice; Intraperitoneal (i.p)): 59.0 ± 11 ng/mL | IL-6 (serum) (BALB/c mice; Subcutaneous (s.c)): 4.3 ± 0.3 ng/mL | IL-12 (serum) (BALB/c mice; Subcutaneous (s.c)): 98.3 ± 15 ng/mL | IL-12 secretion in vitro [5]: strong IL-12 secretion | Average tumor growth inhibition (CT26.CL25 colon tumor; day 24, compared with non-CpG DNA treated mice, 1 mg/kg peritumoral): 72%

Source: patent US7569554B2, “Synergistic treatment of cancer using immunomers in conjunction with therapeutic agents” (Idera Pharmaceuticals, Inc., priority 2003, dated 2009)
